Here are results for ten compounds from ChEMBL document CHEMBL1201862, “PubChem BioAssay data set” (2004).

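Values below derive from 48-hour exposures of cells grown in 96-well plates, with endpoints linearly interpolated between the two concentrations bracketing the appropriate inhibition level. GI50 is the concentration that inhibits growth by half.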 Active and inactive are the calls of the source. Rule as the data show it: active = GI50 up to about 1.1 µM and inactive = higher. Non-standard residues stand in square brackets, D forms with d. Residues, ends and D or L forms follow the SMILES beside them. *: point of attachment. X30 = COC1=CC(=O)N(C(=O)[C@@H](O*)C(C)C)[C@H]1Cc1ccccc1; NMeL = CN[C@@H](CC(C)C)C(=O)O; Cbz = O=C(OCc1ccccc1)*

Common to all, as to assay: growth of human tumour cells (NCI), 48 h
The subject of assay [1] is 786-0.
Assay [2] relates to A498.
In assay [3] the test system is A549.
Assay [4] deals with BT-549.
Assay [5] deals with DU-145.
For assay [6], the system named is HCC 2998.
Assay [7] relates to HCT-15.
Assay [8] concerns LOX IMVI.
Assay [9] relates to MCF7.
In assay [10] the test system is Malme-3M.
Assay [11] concerns NCI-H226.
For assay [12], the system named is NCI-H23.
For assay [13], the system named is NCI-H460.
For assay [14], the system named is RXF 393.
The test system of assay [15] is SF-295.
Assay [16] deals with SNB-19.
Assay [17] concerns SNB-75.
The subject of assay [18] is U-251.
The subject of assay [19] is UACC-62.
Assay [20] deals with UO-31.

Take `CC12NC(=C(C#N)C#N)C(C#N)=C3NC(N)=C(C#N)C(=C31)Oc1ccccc12` (stereo unspecified): the GI50 in [1] is 18.5 µM (inactive); in assay [2] it was > 30.9 µM (inactive); in [3], 17 µM (inactive); in [4] it was > 24.8 µM (inactive); in assay [5] it was 10.1 µM (inactive); in [6] it was 27.4 µM (inactive). The GI50 in assay [7] was 28.8 µM; in assay [8] it was 5.83 µM (inactive); in assay [9] it was > 35.6 µM (inactive); in [10], 20.6 µM (inactive); in assay [11], 43.6 µM (inactive); in assay [12], 6.85 µM (inactive). Moreover, the GI50 in [13] was 31 µM (inactive); in assay [14] it was 2.53 µM (inactive); in assay [15] it was 20 µM (inactive); in assay [16] it was > 40.7 µM (inactive); in assay [17] it was > 57.1 µM (inactive); in assay [18], 18.1 µM (inactive). Also, the GI50 was 15 µM (inactive) in [19] and > 100 µM (inactive) in assay [20].
Regarding `COC1=CC(=O)N(C(=O)[C@@H](OC(=O)[C@@H]2CCCN2C(=O)[C@@H]2CCCN2C(=O)[C@H](CC(C)C)N(C)C(=O)[C@@H](NC(=O)[C@@H](NC(=O)OCc2ccccc2)C(C)C)C(C)C)C(C)C)[C@H]1Cc1ccccc1` (Cbz-VV[NMeL]PP-X30), the GI50 in [1] was 23.3 µM (inactive); in assay [2] it was 19.6 µM (inactive); in [3] it was 76.7 µM (inactive); in assay [4], 23.1 µM (inactive); in assay [5], > 100 µM (inactive); in assay [6], > 100 µM (inactive). The GI50 in assay [7] is greater than 100 µM; in [8] it was > 100 µM (inactive); in assay [9], 56 µM (inactive); in assay [10] it was > 100 µM (inactive); in [11], > 100 µM (inactive); in [12], > 100 µM (inactive). Moreover, the GI50 is 52.7 µM (inactive) in assay [13]; 14.2 µM (inactive) in assay [14]; 20.3 µM (inactive) in assay [15]; 28.6 µM (inactive) in [16]; 2.37 µM (inactive) in assay [17]; 24.9 µM (inactive) in assay [18]. In addition, the GI50 in [19] is 48.1 µM (inactive); in assay [20], > 100 µM (inactive).
As for `CCCCCCOc1ccc(C(=O)N(C)O)cc1`, the GI50 was 12.4 µM (inactive) in assay [1]; 26.5 µM (inactive) in assay [2]; 12.1 µM (inactive) in assay [3]; 33.7 µM (inactive) in assay [4]; 16.5 µM (inactive) in assay [5]; 17.7 µM (inactive) in assay [6]. In addition, the GI50 in [7] is 4.41 µM; in assay [8], 7.52 µM (inactive); in assay [9] it was 28.9 µM (inactive); in assay [10], 14.1 µM (inactive); in assay [11], 13.5 µM (inactive); in assay [12], 11.9 µM (inactive). The GI50 was 6.12 µM (inactive) in assay [13]; 13.1 µM (inactive) in assay [14]; 9.55 µM (inactive) in assay [15]; 24.2 µM (inactive) in [16]; 27.3 µM (inactive) in assay [17]; 12.5 µM (inactive) in assay [18]. In addition, the GI50 in assay [19] was 16.1 µM (inactive); in assay [20] it was 9.48 µM (inactive).
On to `COc1ccc(O)c(/C=N/NC(=S)N2CCCCC2)c1`, for which the GI50 in assay [1] was 1.15 µM (inactive); in assay [2], 12.1 µM (inactive); in assay [3], 1.81 µM (inactive); in [4] it was 3.77 µM (inactive); in [5], 1.74 µM (inactive); in assay [6] it was 1.87 µM (inactive). Also, the GI50 in assay [7] is 0.611 µM; in assay [8] it was 0.767 µM (active); in assay [9], 7.96 µM (inactive); in assay [10], 1.71 µM (inactive); in [11], 1.07 µM (active); in assay [12], 2.15 µM (inactive). In addition, the GI50 is 1.22 µM (inactive) in [13]; 7.73 µM (inactive) in assay [14]; 3.33 µM (inactive) in assay [15]; 4.51 µM (inactive) in assay [16]; 10.5 µM (inactive) in [17]; 1.85 µM (inactive) in assay [18]. Moreover, the GI50 in assay [19] is 2.54 µM (inactive); in [20], 0.746 µM (active).
`COc1cccc(C2c3cc4c(cc3OC(NNC(N)=O)C2C)OCO4)c1O` (stereo unspecified): the GI50 in assay [1] is 1.52 µM (inactive); in [2] it was 0.83 µM (active); in [3], 1.92 µM (inactive); in assay [4], 33 µM (inactive); in assay [5], 4.25 µM (inactive); in assay [6], 1.8 µM (inactive). The GI50 is 1.08 µM in [7]; 0.933 µM (active) in [8]; 0.491 µM (active) in assay [9]; 0.745 µM (active) in [10]; 2 µM (inactive) in assay [11]; 3.17 µM (inactive) in [12]. For the same compound, the GI50 in [13] was 0.951 µM (active); in assay [14] it was 0.766 µM (active); in assay [15] it was 0.593 µM (active); in [16], 9.14 µM (inactive); in assay [17] it was 4.33 µM (inactive); in assay [18] it was 1.07 µM (active). The GI50 in [19] is 2.54 µM (inactive); in [20], 8.39 µM (inactive).
`C=C1C(=O)OC2C1C(OC(=O)/C(C)=C/C)CC(O)(CCl)C1C(OC(C)=O)C=C(C)C21O` (stereo unspecified): the GI50 in assay [1] was 11.6 µM (inactive); in [2] it was 21.8 µM (inactive); in assay [3] it was 28.2 µM (inactive); in assay [4], 8.85 µM (inactive); in assay [5], 15.2 µM (inactive); in [6], 16.3 µM (inactive). The GI50 is 6.46 µM in assay [7]; 6.49 µM (inactive) in [8]; 6.56 µM (inactive) in [9]; 3.34 µM (inactive) in assay [10]; 30.3 µM (inactive) in [11]; 16.6 µM (inactive) in [12]. In addition, the GI50 in [13] was 20.8 µM (inactive); in [14] it was 11.2 µM (inactive); in assay [15], 58.5 µM (inactive); in [16], > 42.9 µM (inactive); in assay [17], 21.8 µM (inactive); in assay [18], 20.2 µM (inactive). Besides, the GI50 was 14.3 µM (inactive) in assay [19] and 18.6 µM (inactive) in [20].
Consider `C=CCOc1ccc(N)c([N+](=O)[O-])c1`, for which the GI50 in [1] is > 100 µM (inactive); in assay [2], 33.3 µM (inactive); in [3] it was > 100 µM (inactive); in assay [4], > 100 µM (inactive); in [5] it was > 100 µM (inactive); in [6], > 100 µM (inactive). For the same compound, the GI50 is greater than 100 µM in [7]; > 100 µM (inactive) in assay [8]; > 100 µM (inactive) in assay [9]; > 100 µM (inactive) in assay [10]; > 100 µM (inactive) in assay [11]; > 100 µM (inactive) in assay [12]. Moreover, the GI50 was > 100 µM (inactive) in assay [14]; > 100 µM (inactive) in assay [15]; > 100 µM (inactive) in assay [16]; 89.3 µM (inactive) in assay [17]; > 100 µM (inactive) in assay [18]; > 100 µM (inactive) in [19]. Further, the GI50 in [20] was 94.4 µM (inactive).
`C=C1C(=O)C23C(O)C1CC[C@H]2C12CCCC(C)(COC(C)=O)[C@H]1[C@H](O)[C@]3(O)OC2` (stereo partly specified): the GI50 in assay [1] was 0.966 µM (active); in assay [2] it was 2.32 µM (inactive); in [3], 3.94 µM (inactive); in [4], 1.48 µM (inactive); in assay [5], 4.3 µM (inactive); in [6] it was 1.85 µM (inactive). In addition, the GI50 in assay [7] was 0.817 µM; in assay [8] it was 1.52 µM (inactive); in [9], 1.78 µM (inactive); in assay [10] it was 1.42 µM (inactive); in [11] it was 2.44 µM (inactive); in assay [12], 1.87 µM (inactive). Moreover, the GI50 in assay [13] was 2.24 µM (inactive); in assay [14] it was 0.407 µM (active); in assay [15] it was 0.891 µM (active); in assay [16], 3.44 µM (inactive); in assay [17], 1.53 µM (inactive); in [18], 2.21 µM (inactive). In addition, the GI50 is 1.58 µM (inactive) in assay [19] and 1.77 µM (inactive) in [20].
As to `COc1ccc2oc(=N)c(C(=O)Nc3ccccn3)cc2c1`, the GI50 in [1], in [2], in [3], in assay [4], in assay [5] and in assay [6] was > 100 µM (inactive) throughout. Further, the GI50 in [7] is greater than 100 µM; in assay [8] it was > 100 µM (inactive); in assay [9] it was 35.1 µM (inactive); in [10] it was 61.2 µM (inactive); in [11] it was 60.3 µM (inactive); in assay [12], > 100 µM (inactive). In addition, the GI50 in assay [13] was > 100 µM (inactive); in [14], > 100 µM (inactive); in assay [16], 87.1 µM (inactive); in assay [17] it was > 100 µM (inactive); in assay [18], > 100 µM (inactive); in assay [19], 71.4 µM (inactive).
On to `CC(NNC(=O)c1ccncc1)c1ccccc1` (stereo unspecified), for which the GI50 in assay [1], in assay [2], in [3], in [4], in assay [5] and in assay [6] was > 100 µM (inactive) throughout. The GI50 in assay [7] was greater than 100 µM; in assay [8], > 100 µM (inactive); in assay [9], > 100 µM (inactive); in assay [10], > 100 µM (inactive); in assay [11], > 100 µM (inactive); in assay [12], > 100 µM (inactive). The GI50 in [14], in assay [15], in [16], in [17], in assay [18] and in assay [19] was > 100 µM (inactive) each time. Also, in assay [20], the GI50 is > 100 µM (inactive).
